According to patent US10294212B2 (CURADEV PHARMA PRIVATE LTD., priority 2013, dated 2019):

Legend:
[1] = molecular target: Human indoleamine 2,3-dioxygenase1 (hIDO1) (Homo sapiens (Human), UniProt P14902); experiment: In-vitro IDO1 enzyme assay (conversion of L-tryptophan to KYN); type: biochemical; settings: read-out: IC50 (IDO1) Enz
How it was run: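 Kynurenine formation quantified by HPLC absorbance at 360 nm or LC/MS/MS after TCA quench and 15 min at 65 °C. Reaction: 10 nM N-His hIDO1, 30 μM tryptophan, ascorbate/methylene blue/catalase, pH 6.5 phosphate buffer, 37 °C for 30 min. Inhibition relative to 1% DMSO vehicle, fitted to IC50.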

[2] = molecular target: IDO1 in HeLa cells (Homo sapiens (Human), UniProt P14902); experiment: HeLa cell based IDO1 assay (IFNγ-induced, KYN in supernatant)
Chain of IDO1 in HeLa cells (P14902 whole entry): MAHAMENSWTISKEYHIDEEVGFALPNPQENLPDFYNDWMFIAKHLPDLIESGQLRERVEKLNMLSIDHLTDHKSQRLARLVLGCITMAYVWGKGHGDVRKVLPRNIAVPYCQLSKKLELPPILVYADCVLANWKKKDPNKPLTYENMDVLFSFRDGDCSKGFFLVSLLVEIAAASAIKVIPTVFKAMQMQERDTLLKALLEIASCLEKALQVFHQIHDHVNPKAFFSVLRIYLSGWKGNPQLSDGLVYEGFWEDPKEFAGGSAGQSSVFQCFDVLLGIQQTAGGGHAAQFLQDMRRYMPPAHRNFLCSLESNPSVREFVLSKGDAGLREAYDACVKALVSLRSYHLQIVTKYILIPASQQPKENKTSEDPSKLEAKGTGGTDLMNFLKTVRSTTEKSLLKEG
How it was run: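 Kynurenine in the supernatant, quantified by C-18 HPLC with 360 nm absorbance after TCA hydrolysis (65 °C, 15 min), was the read-out. Compounds (typically 10 μM to 1 nM) were added in HBSS containing 80 μM tryptophan to HeLa cells pre-induced overnight with 50 ng/mL IFNγ. IC50 came from nonlinear fits of % inhibition versus 1% DMSO vehicle.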

[3] = molecular target: Human TDO (hTDO)-transfected CHO-K1 cells (Homo sapiens (Human), UniProt P48775); experiment: CHO-K1 cell based TDO assay; settings: hTDO cellular assay
Chain of Human TDO (hTDO)-transfected CHO-K1 cells (P48775 whole entry): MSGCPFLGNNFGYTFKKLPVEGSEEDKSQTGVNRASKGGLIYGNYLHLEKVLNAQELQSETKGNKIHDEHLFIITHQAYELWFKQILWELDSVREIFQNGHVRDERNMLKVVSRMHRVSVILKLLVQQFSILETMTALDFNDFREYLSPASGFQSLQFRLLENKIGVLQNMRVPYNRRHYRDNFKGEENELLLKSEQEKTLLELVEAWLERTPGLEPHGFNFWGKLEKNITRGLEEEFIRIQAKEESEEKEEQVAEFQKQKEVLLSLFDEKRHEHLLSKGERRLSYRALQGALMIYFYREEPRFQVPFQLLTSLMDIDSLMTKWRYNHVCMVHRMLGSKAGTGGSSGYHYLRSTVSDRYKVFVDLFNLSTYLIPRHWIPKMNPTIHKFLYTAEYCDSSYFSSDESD
How it was run: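 Kynurenine output was read by LC/MS/MS after TCA precipitation and 15 min at 65° C. Before that, CHO-K1 cells stably carrying human TDO2 were incubated 2 h with compounds (typically 31 μM to 10 nM) and 80 μM L-tryptophan in HBSS. Decrease versus DMSO vehicle gave percent inhibition, then IC50.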

[4] = tested on: CT-26 tumor cells; experiment: Antitumor activity in syngeneic CT26/Balb/C tumor model; type: in vivo, Balb/c mice; settings: 60 mg/kg oral BID, vs control animals
Procedure: Tumor volume reduction by the test compounds was evaluated in a syngeneic CT26/Balb/C tumor model as described below. Balb/c mice were purchased from Vivo Bio Tech, Hyderabad, India, and housed in sterile conditions using an individually ventilated caging system manufactured by Citizen Industries Limited, Ahmedabad, India. Mice were quarantined for at least 7 days before experimentation.
Mouse colorectal tumor forming cells, CT-26 cells (ATCC, USA), were cultured in DMEM and 10% FBS medium supplemented with lx non-essential amino acid (HiMedia) in an incubator maintained at 37QC with 95% humidity and 5% CO2. One million (1×10^6) live syngeneic CT-26 cells suspended in 0.2 ml of […] were injected subcutaneously in the right flank of each Balb/c mouse (age 6-8 weeks, weight: about 18-20 g) on day 1 under anesthesia. Eight to ten mice were used per experimental group. Subcutaneous cells formed localized tumors. Animals were visually inspected twice a day. Tumor measurements were initiated 7 days post injection using Vernier calipers. Tumor sizes at day 7 ranged typically from 80-150 mm^3. Tumor dimensions were subsequently measured every 3 to 4 days and tumor volume was determined. Assuming tumors to be ellipsoid, tumor volume was calculated using the formula: V=(D×d×d)/2
Where D is longest diameter in mm, and d is shortest diameter in mm.
When the average tumor volume in the mice reached 100-120 mm^3, tumor bearing mice were randomized for treatment with either test compound or vehicle alone. Test compounds were formulated generally in normal saline comprising Polyethylene Glycol (PEG400), Propylene glycol (PG) and Dimethyl Acetamide (DACM) at pH 4.5-5.0 and dosed orally at ranges 40-75 mg/kg (dose volume—5 mL/kg) twice a day. Solutions of the compounds were prepared immediately before dosing the animals. In general, tumor volume was measured at various times post-dosing from day 1 to day 34.
A non-limiting example is provided. Tumor bearing mice were dosed orally twice a day at 40 mg/kg body weight with either vehicle control or test compound 2 formulated in 30% Polyethylene Glycol (PEG-400), 20% Propylene glycol (PG) in normal saline. Tumors were measured and tumor volumes were determined at 1, 4, 6, 9, 11, and 14 days after the first dose as described above. Animals were sacrificed on day 14. Tumor and blood samples were harvested for further analysis. Just prior to animal sacrifice, blood was drawn retro-orbitally into a tube containing 0.2% EDTA for plasma collection. The harvested tumors were weighed and snap frozen in liquid nitrogen immediately. Plasma KYN concentrations are measured for pharmacokinetic analysis using LC/MS/MS using an API4000 mass spectrometer (Applied Biosystems) coupled to a Shimadzu Prominence LC system fitted with a C18 column.

Chain of Human indoleamine 2,3-dioxygenase1 (hIDO1) (P14902 whole entry): as the sequence (P14902 whole entry) above

SMILES	IC50 [1]	IC50 [2]	IC50 [3]	reduction of tumor growth [4]
Nc1oc2c(Cl)nccc2c1Nc1ccc(F)c(Cl)c1 [Compound 166, 7-Chloro-N3-(3-chloro-4-fluorophenyl)furo[2,3-c]pyridine-2,3-diamine]	< 200 nM	< 200 nM	< 500 nM	26%-38
CC(C)(C)c1cc(-c2nccc3c(Nc4ccc(F)c(Cl)c4)c(N)oc23)ccn1 [Compound 259, 7-(2-(tert-Butyl)pyridin-4-yl)-N^3-(3-chloro-4-fluorophenyl)furo[2,3-c]pyridine-2,3-diamine]	< 200 nM	200 to 1000 nM	> 2000 nM	
Nc1oc2c[n+]([O-])ccc2c1Nc1ccc(F)c(Cl)c1 [Compound 260, 2-Amino-3-((3-chloro-4-fluorophenyl)amino)furo[2,3-c]pyridine 6-oxide]	200 to 1000 nM	200 to 1000 nM	500 to 2000 nM	
Nc1oc2c(-c3ccc4c(c3)OCO4)nccc2c1Nc1ccc(F)c(Cl)c1 [Compound 261, 7-(Benzo[d][1,3]dioxol-5-yl)-N^3-(3-chloro-4-fluorophenyl)furo[2,3-c]pyridine-2,3-diamine]	< 200 nM	< 200 nM	500 to 2000 nM	
CCc1cc(-c2nccc3c(Nc4ccc(F)c(Cl)c4)c(N)oc23)ccn1 [Compound 262, N^3-(3-Chloro-4-fluorophenyl)-7-(2-ethylpyridin-4-yl)furo[2,3-c]pyridine-2,3-diamine]	< 200 nM	< 200 nM	500 to 2000 nM	
Cc1cc(-c2nccc3c(Nc4cc(Cl)ccc4F)c(N)oc23)ccn1 [Compound 263, N^3-(5-Chloro-2-fluorophenyl)-7-(2-methylpyridin-4-yl)furo[2,3-c]pyridine-2,3-diamine]	< 200 nM	< 200 nM	> 2000 nM	
Cc1cc(-c2nccc3c(Nc4cccc(Cl)c4F)c(N)oc23)ccn1 [Compound 264, N^3-(3-Chloro-2-fluorophenyl)-7-(2-methylpyridin-4-yl)furo[2,3-c]pyridine-2,3-diamine]	200 to 1000 nM	< 200 nM	> 2000 nM	
Cc1cc(-c2nc(C)cc3c(Nc4ccc(F)c(Cl)c4)c(N)oc23)ccn1 [Compound 267, N^3-(3-Chloro-4-fluorophenyl)-5-methyl-7-(2-methylpyridin-4-yl)furo[2,3-c]pyridine-2,3-diamine]	< 200 nM	< 200 nM	> 2000 nM	
Nc1oc2c(-c3ccnc(C(F)(F)F)c3)nccc2c1Nc1ccc(F)c(Cl)c1 [Compound 268, N^3-(3-Chloro-4-fluorophenyl)-7-(2-(trifluoromethyl)pyridin-4-yl)furo[2,3-c]pyridine-2,3-diamine]	< 200 nM	< 200 nM	> 2000 nM	
CCOC(=O)Nc1oc2c(-c3ccnc(C)c3)nccc2c1N(C(=O)OCC)c1ccc(F)c(Cl)c1 [Compound 269, Ethyl (3-chloro-4-fluorophenyl)(2-((ethoxycarbonyl)amino)-7-(2-methylpyridin-4-yl)furo[2,3-c]pyridin-3-yl)carbamate]	> 1000 nM	> 1000 nM	> 2000 nM	
CCOC(=O)Nc1oc2c(-c3ccnc(C)c3)nccc2c1N(C(=O)OCC)c1ccc(F)c(F)c1 [Compound 279, Ethyl (3,4-difluorophenyl)(2-((ethoxycarbonyl)amino)-7-(2-methylpyridin-4-yl)furo[2,3-c]pyridin-3-yl)carbamate]	> 1000 nM	> 1000 nM	> 2000 nM	

Now from value to compound, other results behind:

IC50 [1]	IC50 [2]	IC50 [3]	SMILES	reduction of tumor growth [4]
< 200 nM	< 200 nM	500 to 2000 nM	Nc1oc2c(-c3ccnc(C(=O)N4CCCCC4)c3)nccc2c1Nc1ccc(F)c(Cl)c1 [Compound 271, (4-(2-Amino-3-((3-chloro-4-fluorophenyl)amino)furo[2,3-c]pyridin-7-yl)pyridin-2-yl)(piperidin-1-yl)methanone]	
< 200 nM	< 200 nM	500 to 2000 nM	Nc1oc2c(-c3ccnc(C(=O)N4CCOCC4)c3)nccc2c1Nc1ccc(F)c(Cl)c1 [Compound 272, (4-(2-Amino-3-((3-chloro-4-fluorophenyl)amino)furo[2,3-c]pyridin-7-yl)pyridin-2-yl)(morpholino)methanone]	
< 200 nM	< 200 nM	> 2000 nM	Nc1oc2c(-c3ccnc(C(=O)Nc4ccccn4)c3)nccc2c1Nc1ccc(F)c(Cl)c1 [Compound 273, 4-(2-Amino-3-((3-chloro-4-fluorophenyl)amino)furo[2,3-c]pyridin-7-yl)-N-(pyridin-2-yl)picolinamide]	
< 200 nM	< 200 nM	500 to 2000 nM	Nc1oc2c(-c3ccnc(C(=O)NCCN4CCOCC4)c3)nccc2c1Nc1ccc(F)c(Cl)c1 [Compound 274, 4-(2-Amino-3-((3-chloro-4-fluorophenyl)amino)furo[2,3-c]pyridin-7-yl)-N-(2-morpholinoethyl)picolinamide]	
< 200 nM	200 to 1000 nM	> 2000 nM	CCCCCNC(=O)c1cc(-c2nccc3c(Nc4ccc(F)c(Cl)c4)c(N)oc23)ccn1 [Compound 275, 4-(2-Amino-3-((3-chloro-4-fluorophenyl)amino)furo[2,3-c]pyridin-7-yl)-N-pentylpicolinamide]	
< 200 nM	< 200 nM	500 to 2000 nM	Nc1oc2c(-c3cc(F)ccc3Cl)nccc2c1Nc1ccc(F)c(Cl)c1 [Compound 276, N^3-(3-Chloro-4-fluorophenyl)-7-(2-chloro-5-fluorophenyl)furo[2,3-c]pyridine-2,3-diamine]	
< 200 nM	< 200 nM	500 to 2000 nM	Cc1cc(C)cc(-c2nccc3c(Nc4ccc(F)c(Cl)c4)c(N)oc23)c1 [Compound 277, N^3-(3-Chloro-4-fluorophenyl)-7-(3,5-dimethylphenyl)furo[2,3-c]pyridine-2,3-diamine]	
< 200 nM	< 200 nM	500 to 2000 nM	Nc1oc2c(-c3cc(F)cc(F)c3)nccc2c1Nc1ccc(F)c(Cl)c1 [Compound 278, N^3-(3-Chloro-4-fluorophenyl)-7-(3,5-difluorophenyl)furo[2,3-c]pyridine-2,3-diamine]	
< 200 nM	< 200 nM	500 to 2000 nM	Nc1oc2c(/C=C/c3ccccc3)nccc2c1Nc1ccc(F)c(Cl)c1 [Compound 280, N^3-(3-Chloro-4-fluorophenyl)-7-styrylfuro[2,3-c]pyridine-2,3-diamine]	
